# Article PMC8801796 (Reproductive Toxicology (Elmsford, N.y.), 2022)
# Like-named read-outs stand apart in the source and are kept apart here.
# Key:
# [1] = Fertility and early embryonic development study in rats; assay type: in vivo, rat; conditions: both, Wistar Han, rat, in vivo, oral
# [2] = system: Wistar Han (Crl:WI[Han]) rats; assay: as above; assay type: in vivo, rat; conditions: for Corpora lutea / Implantation sites / Live embryos / Resorptions: GD 14 uterine examination; for Number of pregnant females: of 20
# [3] = Maternal toxicokinetics, rat EFD study; assay type: in vivo; conditions: for Cmax: female, Wistar Han, in vivo, po; for Cmax / Exposure Margin AUC24 / Exposure Margin Cmax: rat; for Mean Systemic Exposure AUC24: maternal rat; for Exposure Margin AUC24: relative to predicted human AUC24 68.6 μg h/mL; for Exposure Margin Cmax: relative to predicted human Cmax 4.14 μg/mL
# [4] = Maternal toxicokinetics, rabbit EFD study; assay type: in vivo; conditions: for Cmax: female, New Zealand White, in vivo, po; for Cmax / Exposure Margin AUC24 / Exposure Margin Cmax: rabbit; for Mean Systemic Exposure AUC24: maternal rabbit; for Exposure Margin AUC24: relative to predicted human AUC24 68.6 μg h/mL; for Exposure Margin Cmax: relative to predicted human Cmax 4.14 μg/mL
# [5] = system: New Zealand White [Hra:(NZW)SPF] rabbits
# rats = conditions: doses up to 1000 mg/kg/day; cited from earlier work
# monkeys = conditions: doses up to 600 mg/kg/day; cited from earlier work
# [6] = cited from earlier work
# in vivo = conditions: female, New Zealand White, rabbit, 1000 mg/kg/day
# [7] = Rat embryo-fetal development; conditions: female, Wistar Han, rat, in vivo, oral
# [8] = system: Wistar Han (Crl:WI[Han]) rats; assay: Rat embryo-fetal development
structure (smiles),measurement,setting,value
"CC(C)(C)[C@H](NC(=O)C(F)(F)F)C(=O)N1C[C@H]2[C@@H]([C@H]1C(=O)N[C@H](C#N)C[C@@H]1CCNC1=O)C2(C)C [NMV, nirmatrelvir]",NOAEL,[1],1000 mg/kg/day
same,"Female Food Consumption, Gestation Day 0−14",[2]; 60 mg/kg/day,19.2 ± 2.1 g/day
same,"Female Food Consumption, Premating Day 1−14",[2]; 60 mg/kg/day,15.3 ± 1.2 g/day
same,Female Terminal Body Weight,[2]; 60 mg/kg/day,277.0 ± 24.1 g
same,"Male Food Consumption, Mating Day 15−19",[2]; 60 mg/kg/day,19.3 ± 2.8 g/day
same,"Male Food Consumption, Premating Day 1−14",[2]; 60 mg/kg/day,22.0 ± 1.1 g/day
same,Male Terminal Body Weight,[2]; 60 mg/kg/day,409.9 ± 22.7 g
same,Mean no. of estrous cycles,[2]; 60 mg/kg/day,2.7 ± 0.5
same,Postimplantation loss,[2]; 60 mg/kg/day,5.3 ± 5.7%
same,Precoital interval,[2]; 60 mg/kg/day,3.6 ± 3.5 days
same,Preimplantation loss,[2]; 60 mg/kg/day,9.7 ± 8.1%
same,Corpora lutea,[2]; 60 mg/kg/day,13.8 ± 1.3
same,Implantation sites,[2]; 60 mg/kg/day,12.5 ± 1.4
same,Live embryos,[2]; 60 mg/kg/day,11.8 ± 1.4
same,Resorptions,[2]; 60 mg/kg/day,0.7 ± 0.7
same,Number of pregnant females,[2]; 60 mg/kg/day,19
same,"Female Food Consumption, Gestation Day 0−14",[2]; 200 mg/kg/day,19.0 ± 2.2 g/day
same,"Female Food Consumption, Premating Day 1−14",[2]; 200 mg/kg/day,14.8 ± 0.8 g/day
same,Female Terminal Body Weight,[2]; 200 mg/kg/day,272.0 ± 13.3 g
same,"Male Food Consumption, Mating Day 15−19",[2]; 200 mg/kg/day,18.0 ± 3.1 g/day
same,"Male Food Consumption, Premating Day 1−14",[2]; 200 mg/kg/day,23.0 ± 1.2 g/day
same,Male Terminal Body Weight,[2]; 200 mg/kg/day,411.6 ± 22.2 g
same,Mean no. of estrous cycles,[2]; 200 mg/kg/day,2.7 ± 0.5
same,Postimplantation loss,[2]; 200 mg/kg/day,9.5 ± 12.8%
same,Precoital interval,[2]; 200 mg/kg/day,3.0 ± 2.2 days
same,Preimplantation loss,[2]; 200 mg/kg/day,11.0 ± 18.4%
same,Corpora lutea,[2]; 200 mg/kg/day,14.1 ± 1.7
same,Implantation sites,[2]; 200 mg/kg/day,12.6 ± 3.0
same,Live embryos,[2]; 200 mg/kg/day,11.5 ± 3.2
same,Resorptions,[2]; 200 mg/kg/day,1.1 ± 1.6
same,Number of pregnant females,[2]; 200 mg/kg/day,18
same,"Female Food Consumption, Gestation Day 0−14",[2]; 1000 mg/kg/day,19.0 ± 1.6 g/day
same,"Female Food Consumption, Premating Day 1−14",[2]; 1000 mg/kg/day,14.7 ± 1.0 g/day
same,Female Terminal Body Weight,[2]; 1000 mg/kg/day,277.8 ± 14.1 g
same,"Male Food Consumption, Mating Day 15−19",[2]; 1000 mg/kg/day,18.3 ± 3.2 g/day
same,Male Terminal Body Weight,[2]; 1000 mg/kg/day,408.9 ± 19.7 g
same,Mean no. of estrous cycles,[2]; 1000 mg/kg/day,2.6 ± 0.5
same,Postimplantation loss,[2]; 1000 mg/kg/day,10.6 ± 11.9%
same,Precoital interval,[2]; 1000 mg/kg/day,3.2 ± 2.9 days
same,Preimplantation loss,[2]; 1000 mg/kg/day,16.9 ± 22.8%
same,Corpora lutea,[2]; 1000 mg/kg/day,12.7 ± 1.6
same,Implantation sites,[2]; 1000 mg/kg/day,10.5 ± 3.1
same,Live embryos,[2]; 1000 mg/kg/day,9.6 ± 3.2
same,Resorptions,[2]; 1000 mg/kg/day,1.0 ± 0.8
same,Number of pregnant females,[2]; 1000 mg/kg/day,20
same,"Male Food Consumption, Premating Day 1−14","[2]; 1000 mg/kg/day, p ≤ 0.05",20.9 ± 0.9 g/day
same,Effects on male or female fertility,[2]; up to 1000 mg/kg/day,no NMV-related effects on male or female fertility
same,Systemic toxicity in males and females,[2]; up to 1000 mg/kg/day,no evidence of systemic toxicity
same,Cmax,[3]; 100 mg/kg/day,29 ± 11 µg/mL
same,Cmax,[3]; 300 mg/kg/day,43.2 ± 14.4 µg/mL
same,Cmax,[3]; 1000 mg/kg/day,65.4 ± 18.7 µg/mL
same,Mean Systemic Exposure AUC24,"[3]; GD 17, 100 mg/kg/day",75.5 ± 12.4 μgh^•/mL
same,Mean Systemic Exposure AUC24,"[3]; GD 17, 300 mg/kg/day",346 ± 92.0 μgh^•/mL
same,Mean Systemic Exposure AUC24,"[3]; GD 17, 1000 mg/kg/day",535 ± 330 μgh^•/mL
same,Exposure Margin AUC24,"[3]; GD 17, 100 mg/kg/day",1.1x
same,Exposure Margin Cmax,"[3]; GD 17, 100 mg/kg/day",7.0x
same,Exposure Margin AUC24,"[3]; GD 17, 300 mg/kg/day",5.0x
same,Exposure Margin Cmax,"[3]; GD 17, 300 mg/kg/day",10x
same,Exposure Margin AUC24,"[3]; GD 17, 1000 mg/kg/day",7.8x
same,Exposure Margin Cmax,"[3]; GD 17, 1000 mg/kg/day",16x
same,Cmax,[4]; 100 mg/kg/day,17 ± 6.1 µg/mL
same,Cmax,[4]; 300 mg/kg/day,42.9 ± 11.1 µg/mL
same,Cmax,[4]; 1000 mg/kg/day,99.6 ± 46.5 µg/mL
same,Mean Systemic Exposure AUC24,"[4]; GD 19, 100 mg/kg/day",98.7 ± 27.4 μgh^•/mL
same,Mean Systemic Exposure AUC24,"[4]; GD 19, 300 mg/kg/day",195 ± 56.8 μgh^•/mL
same,Mean Systemic Exposure AUC24,"[4]; GD 19, 1000 mg/kg/day",689 ± 206 μgh^•/mL
same,Exposure Margin AUC24,"[4]; GD 19, 100 mg/kg/day",1.4x
same,Exposure Margin Cmax,"[4]; GD 19, 100 mg/kg/day",4.1x
same,Exposure Margin AUC24,"[4]; GD 19, 300 mg/kg/day",2.8x
same,Exposure Margin Cmax,"[4]; GD 19, 300 mg/kg/day",10x
same,Exposure Margin AUC24,"[4]; GD 19, 1000 mg/kg/day",10x
same,Exposure Margin Cmax,"[4]; GD 19, 1000 mg/kg/day",24x
same,Corpora lutea,[5]; 100 mg/kg,9.7 ± 1.5
same,Fetal weight (g)/Litter,[5]; 100 mg/kg,40.2 ± 3.0 g
same,Implantation sites,[5]; 100 mg/kg,8.2 ± 1.7
same,Maternal Body Weight (GD 29),[5]; 100 mg/kg,3.6 ± 0.2 kg
same,Maternal Body Weight Gain (GD 7−29),[5]; 100 mg/kg,0.5 ± 0.1 kg
same,Maternal Food Consumption (GD 7−29),[5]; 100 mg/kg,2983.9 ± 289.5 g
same,Post-implantation loss,[5]; 100 mg/kg,3.3 ± 7.7%
same,Pre-implantation loss,[5]; 100 mg/kg,14.4 ± 17.9%
same,Corpora lutea,[5]; 300 mg/kg,9.4 ± 2.1
same,Fetal weight (g)/Litter,[5]; 300 mg/kg,40.3 ± 4.5 g
same,Implantation sites,[5]; 300 mg/kg,8.6 ± 2.3
same,Maternal Body Weight (GD 29),[5]; 300 mg/kg,3.6 ± 0.2 kg
same,Maternal Body Weight Gain (GD 7−29),[5]; 300 mg/kg,0.4 ± 0.1 kg
same,Maternal Food Consumption (GD 7−29),[5]; 300 mg/kg,2908.9 ± 500.1 g
same,Post-implantation loss,[5]; 300 mg/kg,5.4 ± 7.4%
same,Pre-implantation loss,[5]; 300 mg/kg,9.5 ± 10.2%
same,Corpora lutea,[5]; 1000 mg/kg,9.5 ± 1.7
same,Implantation sites,[5]; 1000 mg/kg,8.8 ± 1.6
same,Maternal Body Weight (GD 29),[5]; 1000 mg/kg,3.6 ± 0.2 kg
same,Maternal Body Weight Gain (GD 7−29),[5]; 1000 mg/kg,0.4 ± 0.1 kg
same,Maternal Food Consumption (GD 7−29),[5]; 1000 mg/kg,2703.0 ± 514.2 g
same,Post-implantation loss,[5]; 1000 mg/kg,3.2 ± 4.9%
same,Pre-implantation loss,[5]; 1000 mg/kg,6.4 ± 11.8%
same,Fetal weight (g)/Litter,"[5]; 1000 mg/kg, p ≤ 0.01",37.7 ± 4.4 g
same,Mean maternal body weight gains and food consumption versus control,"[5]; rabbit, 1000 mg/kg/day",slightly lower than control
same,Effects on embryo-fetal viability,[5]; up to 1000 mg/kg/day,no NMV-related effects on embryo-fetal viability
same,"Effects on external, visceral, or skeletal morphological development",[5]; up to 1000 mg/kg/day,"no NMV-related effects on external, visceral, or skeletal morphological development"
same,Adverse findings in 2-week general toxicology study,rats,lack of adverse findings
same,Adverse findings in 2-week general toxicology study,monkeys,lack of adverse findings
same,Genetic toxicity,[6],lack of genetic toxicity
same,NOAEL,in vivo,300 mg/kg/day
same,NOAEL,[7],1000 mg/kg/day
same,Corpora lutea,[8]; 100 mg/kg,11.4 ± 1.1
same,Fetal weight (g)/Litter,[8]; 100 mg/kg,5.3 ± 0.3 g
same,Implantation sites,[8]; 100 mg/kg,9.9 ± 1.5
same,Maternal Food Consumption (GD 6−21),[8]; 100 mg/kg,313.4 ± 32.0 g/day
same,Post-implantation loss,[8]; 100 mg/kg,6.5 ± 15.4%
same,Pre-implantation loss,[8]; 100 mg/kg,12.8 ± 11.1%
same,Corpora lutea,[8]; 300 mg/kg,11.5 ± 1.5
same,Fetal weight (g)/Litter,[8]; 300 mg/kg,5.5 ± 0.3 g
same,Implantation sites,[8]; 300 mg/kg,9.3 ± 2.4
same,Maternal Food Consumption (GD 6−21),[8]; 300 mg/kg,322.3 ± 20.8 g/day
same,Post-implantation loss,[8]; 300 mg/kg,6.8 ± 14.9%
same,Pre-implantation loss,[8]; 300 mg/kg,18.7 ± 19.9%
same,Corpora lutea,[8]; 1000 mg/kg,11.5 ± 1.5
same,Fetal weight (g)/Litter,[8]; 1000 mg/kg,5.4 ± 0.3 g
same,Implantation sites,[8]; 1000 mg/kg,9.7 ± 2.6
same,Maternal Food Consumption (GD 6−21),[8]; 1000 mg/kg,309.5 ± 43.1 g/day
same,Post-implantation loss,[8]; 1000 mg/kg,9.7 ± 14.1%
same,Pre-implantation loss,[8]; 1000 mg/kg,15.3 ± 21.0%
same,Effects on embryo-fetal viability,[8]; all dose groups,no NMV-related effects on embryo-fetal viability
same,Maternal toxicity,[8]; any dose up to 1000 mg/kg/day,no NMV-related maternal toxicity
same,"Effects on fetal external, visceral, or skeletal morphological development",[8]; up to 1000 mg/kg/day,"no effects on fetal external, visceral, or skeletal morphological development"
